Measurements published in US12029682B2, “Spray ejector mechanisms and devices providing charge isolation and controllable droplet charge, and low dosage volume ophthalmic administration” (EYENOVIA, INC., priority 2012, dated 2024).
“Also recorded” adds a separate entry of the source.

Key:
Type in all cases: in vivo, beagle dog
glaucomatous beagles [1] = assay: Intraocular pressure (IOP), TonoVet, in glaucomatous beagles; settings: including control of morning IOP spike
Protocol: (§1) One glaucomatous beagle dog (female, aged 3 years) from the University of Florida MacKay Colony of Glaucomatous Beagles was chosen for this study. The animal was rested a minimum of one week before starting the study. Prior to the commencement of the study, the animal was assigned one eye to receive 1.5 μl of 0.005% latanoprost and the contralateral eye to remain untreated as a control. The basic measurement protocol was followed at all times and performed by the same operator. PD was measured via Jameson Caliper (mm horizontally). IOP was measured using a TonoVet instrument with clean probe (iCare). IOP and PD were measured at time 0, 1, 2, 4, 7 and 18 hours daily for two days. Immediately after the time 0 measurement, the animal received 1.5 μl of 0.005% latanoprost in its assigned eye with a spray device. The contralateral eye was left untreated. The spray device was checked for accuracy before and after every use, and required a 10% delivered dose accuracy in pretreatment. Standard measurements continued throughout each day at time 1, 2, 4, 7 and 18 hours. Possible endpoints included, but were not limited to, excessive ocular irritation, ocular damage, and other illness or injury. No statistical crossover was utilized for this study.
as §1, with “study.” for “study. The animal was rested a minimum of one week before starting the study.”, “receive 3.0” for “receive 1.5”, “0 measurements,” for “0 measurement,”, “animal was administered 3.0” for “animal received 1.5”, “eye using” for “eye with”, “spray ejector” for “spray”
All animals were rested for a minimum of one week before starting the trials. IOP and pupil diameter (PD) were measured 5 times (at 0, 1, 2, 4, and 7 hours) daily for four days (study days 1-4) to establish initial baseline levels. The basic measurement protocol was followed at all times and performed by the same operator. PD was measured via Jameson Caliper (mm horizontally). IOP was measured with a TonoVet instrument with clean probe (iCare). After three rest days, one eye was randomly assigned to receive 9 μl of 0.005% latanoprost delivered via a spray ejector device, and the contralateral eye was administered traditional latanoprost from a traditional eyedropper container (26-30 μl).
On study days 5-9, IOP and PD measurements were taken at approximately 0900 h (time 0). Immediately after time 0 measurements, each animal received a once-daily dose of 9 μl of generic 0.005% latanoprost in its assigned eye via the spray ejector device. The contralateral eye received a clinical dose (one drop) of the same commercially available topical drug from a traditional eyedropper (positive control). The spray ejector device was checked for accuracy before and after every use and required a 10% delivered dose accuracy in pretreatment. Standard measurements continued throughout each day at 0, 1, 2, 4, and 7 hours. Possible endpoints included, but were not limited to, excessive ocular irritation, ocular damage, and other illness or injury. No statistical crossover was utilized for this study. […]

glaucomatous beagles [2] = assay: Ocular irritation observations in glaucomatous beagles
Protocol: Active drug delivery begins on study day eight. For five days, IOP and PD measurements are taken at 0900. Immediately after 0900 measurements (time 0), each animal receives 6 μl of generic latanoprost in its assigned eye with the ejector device, followed by a second dosing 3 minutes later of an additional 6 μl (to avoid overloading the conjunctival sac). The contralateral eye receives a clinical dose (one drop) of the same commercially-available topical drug from FDA approved container (positive control). The ejector device is checked for accuracy before and after every use (Table 1). Standard measurements continue throughout each day (at 0:30, 0:45, 1, 2, 7 hrs). Possible endpoints include, but are not limited to, excessive ocular irritation, ocular damage, or other illness and injury. […]
On study days 5-9, IOP and PD measurements were taken at approximately 0900 h (time 0). Immediately after these measurements, each animal received 6 μl of 0.03% bimatoprost in its assigned eye via the spray ejector device. The contralateral eye received a clinical dose (one drop) of the same commercially available topical drug from a traditional eyedropper (positive control). The spray ejector device was checked for accuracy before and after every use and required a 10% delivered dose accuracy in pretreatment. Standard measurements continued throughout each day at 0, 1, 2, 4, and 7 hours. Possible endpoints included, but were not limited to, excessive ocular irritation, ocular damage, and other illness or injury. No statistical crossover was utilized for this study.
Ophthalmic examinations (slit lamp with fluorescein and indirect ophthalmoscopy) were performed on the eyes of each animal prior to Study Day 1. Ocular findings were scored according to the McDonald-Shadduck Score System. Ocular findings were recorded using a standardized data collection sheet. Macroscopic observations were recorded in accordance with the Draize Scale for Scoring Ocular Lesions. Animals were assigned treatments based on basic randomization prior to study day one.
Following a 7 day rest period, the eye choice was reversed. Measurements of IOP, heart rate and pupil diameter (PD) were made at 0:15, 0:30, 0:45, 1, 2, 4, 7, and 18 hours in the primary and crossover study. A veterinary ophthalmologist evaluated each test subject before and after the study for evidence of ocular side effects.
Ophthalmic examinations (slit lamp with fluorescein and indirect ophthalmoscopy) were performed on the eyes of each animal prior to study day 1. Ocular findings were scored according to the McDonald-Shadduck score system and macroscopic observations were recorded in accordance with the Draize scale for scoring ocular lesions. Ocular findings were recorded using a standardized data collection sheet.

glaucomatous beagles [3] = assay: Pupil diameter (PD), Jameson Caliper, in glaucomatous beagles
glaucomatous beagles [4] = assay: Intraocular pressure (IOP), TonoVet, in glaucomatous beagles
[5] = 0.0005%, 0.002%, positively charged, 3 mcl
[6] = 9 μl of 0.004% via spray ejector device, study day 1

For `CC(C)OC(=O)CCC/C=C\C[C@@H]1[C@@H](/C=C/[C@@H](O)COc2cccc(C(F)(F)F)c2)[C@H](O)C[C@@H]1O` [travoprost], the “lowering of IOP over a 24 hour period compared with other prostaglandin agonists studied” value (glaucomatous beagles [1]) was “most effective of the prostaglandin agonists studied”, the “excessive eye irritation or other eye issues” value (glaucomatous beagles [2]; 9 μl of 0.004%, spray ejector device and micropipette) was “no reports of excessive eye irritation or other eye issues” and the “irritation vs eyedropper-treated eyes” value (glaucomatous beagles [2]; 18 μl of 0.004% via spray ejector device) was “less than that observed in the eyedropper-treated eyes”. The “decrease of pupillary diameter compared to uncharged droplets” value (glaucomatous beagles [3]; [5]) was “less decrease of pupillary diameter”, the maximum miosis (glaucomatous beagles [3]; 9 μl of 0.004% via spray ejector device, at time 12 hours) was 1.17 mm and the “time of significant PD changes” value (glaucomatous beagles [3]; [6]) was 12 h. The “IOP lowering compared to uncharged droplets” value (glaucomatous beagles [4]; [5]) was “greater IOP lowering”, the “IOP values vs baseline” value (glaucomatous beagles [4]; 0.004%, both treatments (18 μl spray ejector device, eyedropper)) was “much lower than baseline for a full 24 hours” and the “IOP lowering compared to uncharged droplets” value (glaucomatous beagles [4]; 0.004%, positively and negatively charged) was “greater IOP lowering”. The IOP lowering (glaucomatous beagles [4]; 3 microliters, 0.002% and 0.0005%, spray ejector device with controllable droplet charge) was “greater IOP lowering”, the “spray ejector device vs micropipette treatment” value (glaucomatous beagles [4]; 9 μl of 0.004% each, throughout the study (p=0.7546)) was “no statistically significant differences” and the “highest average daily peak IOP” value (glaucomatous beagles [4]; 9 μl of 0.004% via spray ejector device, after 5 days of treatment) was 18.83 mmHg. The “time of significant changes in IOP from baseline” value (glaucomatous beagles [4]; [6]) was 12 h, the “post-treatment IOP” value (glaucomatous beagles [4]; 18 μl morning or evening dose via spray ejector device / traditional therapy) was “below 20 mmHg” and the “effectiveness at lowering/controlling IOP vs traditional therapy” value (glaucomatous beagles [4]; 18 μl of 0.004% once daily, morning or evening, via spray ejector device vs one drop (average 26 μl)) was “as effective at lowering IOP and constricting the pupil as the traditional therapy; also recorded: as effective at controlling IOP as traditional therapy”. For the same molecule, the “difference in duration of IOP lowering, spray ejector device vs eyedropper” value (glaucomatous beagles [4]; 18 μl of 0.004% vs one drop) was “not significant” and the “duration of IOP lowering” value (glaucomatous beagles [4]; controllable droplet charge spray administration, 1xqd@hs dosing) was “full 24 hour IOP lowering”.
